“Also recorded” adds a separate entry of the source.

Results on ten compounds are retold here after article PMC8066339, “Optimization of 2-Acylaminocycloalkylthiophene Derivatives for Activity against Staphylococcus aureus RnpA” (Antibiotics, 2021).

Test [1] addresses T1, S. aureus RnpA (Staphylococcus aureus, UniProt P0A0H5).
T1 construct: made in house; host or cells: E. coli BL21 (DE3)
T1 sequence (P0A0H5 1-117): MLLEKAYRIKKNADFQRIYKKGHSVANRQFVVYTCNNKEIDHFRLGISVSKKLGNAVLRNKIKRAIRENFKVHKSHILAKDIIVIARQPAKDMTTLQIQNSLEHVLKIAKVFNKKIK
The test can be described thus: In vitro RnpA mRNA degradation assay (RNase Alert FRET substrate). It is filed as biochemical. Particulars: for RNA degradation inhibition in time course study: 50 µM compound, 30 min at 37 °C, Figure 2A; for IC50: in vitro RnpA-mediated RNA degradation, read-out: mRNA IC50. As to the method:
(§1) His-tagged RnpA was purified as previously described. E. coli BL21 (DE3) cells harboring plasmid pEXP5-nt containing a hexahistidine tag fused to the N-terminus of S.aureus RnpA coding region were grown in LB supplemented with 50 µg mL^−1 ampicillin to OD600 = 0.6 and induced with 1mM isopropyl β-D-1-thiogalactopyranoside (IPTG) for three hours to induce protein expression. […] Cells were mechanically lysed by three passes at 18,000 psi through a French Pressure Cell Press (SLM-Aminco; Pittsford, NY, USA) and cell debris was removed by centrifugation at 17,000× g for 10 min at 4 °C. Supernatants were collected, filtered through a 0.2 micron syringe filter, then loaded onto a 5 mL HisPur cobalt column (ThermoFisher Scientific, Waltham, MA, U.S.A.) using the BioRad Maximizer Duo-Flow Medium Pressure Chromatography System. Protein was eluted using an imidazole gradient (80 mM to 500 mM). Fractions were assessed for RnpA presence and purity via SDS-PAGE analysis, Coomassie staining and Western blotting using an anti-His antibody (Invitrogen; Grand Island, NY, USA).
RnpA-mediated degradation was assessed using the Rnase Alert QC System (Thermofisher Scientific). 20 pmol of His-RnpA was combined with 0.4 μM (final concentration) FRET substrate and either DMSO (negative control) or compound ≤500 µM in 1× Rnase Alert Buffer. Reactions were assembled in 96-well PCR plates (BioRad) and incubated at 37 °C for 30 min in the BioRad CFX 96 Connect Real Time instrument, measuring fluorescence every 2 min at 490 nm excitation/520 nm emission. Percent inhibition of each compound was calculated at the 30 min time-point based on the following formula: (RFU of compound treated RnpA/RFU of DMSO-treated RnpA) × 100.

For test [2], the target named is T2, RNase P (RnpA + rnpB) (Staphylococcus aureus, UniProt P0A0H5).
T2 construct: made in house; host or cells: E. coli BL21 (DE3)
T2 sequence (P0A0H5 1-117): T1 sequence (P0A0H5 1-117)
The test can be described thus: In vitro ptRNA^Tyr processing assay with reconstituted RNase P. The format is biochemical. Particulars: for IC50: in vitro ptRNA^Tyr processing, average of at least two tests, read-out: ptRNA IC50. As to the method: as §1
rnpB and RNA substrates (spa, ptRNA^Tyr) for RnpA functional assays, as well as mature tRNA were synthesized in vitro, as previously described. Each gene was PCR amplified using S. aureus UAMS-1 chromosomal DNA as a template and the corresponding oligonucleotide primer pairs, in which the forward primers contained an RNA polymerase T7 promoter sequence. The following primer pairs were used in this study (T7 promoter underlined): T7-rnpB forward—[…] and rnpB reverse—[…]; T7-ptRNA^Tyr forward—[…] and ptRNA^Tyr reverse—TGGTGGAG GGGGGCAGATTC; T7-spa forward—[…] CGACGTCCAG and spa reverse—[…]. Resulting PCR products were analyzed on a 0.8% agarose gel and purified using the Qiagen QIAquick Gel Extraction kit, according to the manufacturer’s instructions. In vitro transcription was performed using the TranscriptAid T7 High Yield Transcription kit (Fermentas; Burlington, ON, Canada) following manufacturer’s instructions. Following in vitro transcription, the RNA was treated with DNase I for 90 min and re-purified using the Qiagen RNeasy Mini kit. RNA was quantified using a NanoDrop2000 spectrophotometer.
S.aureus Rnase P activity assays were performed as previously described. Briefly, ptRNA^Tyr and rnpB RNA was denatured by heating to 95 °C for 5 min then slow cooled to room temperature. RNA species were then combined with 2× low salt buffer (50 mM Tris-HCl pH 8.0, 5 mM MgCl2) and incubated for 5 min at 37 °C. Rnase P was reconstituted by mixing an equal molar ratio of His-RnpA and rnpB for 15 min at 37 °C. […] Then, 5 pmol ptRNA^Tyr was added to each reaction and incubated for an additional 30 min at 37 °C. Reactions were stopped with 2× RNA loading dye (Thermo Scientific) and heating to 65 °C for 10 min. Samples were electrophoresed on a 7M urea/8% polyacrylamide gel then stained with 0.5 µg mL^−1 ethidium bromide. The BioRad EZ Gel Doc imaging system was used to visualize the RNA and relative abundance of mature tRNA^Tyr in the DMSO control or in the samples containing compound and analyzed using BioRad Image Lab densitometry software. The percent inhibitory activity of each compound was calculated using the following equation: (% experimental processing/% processing negative control) × 100.

For test [3], the system named is S. aureus UAMS-1. The test can be described thus: Fractional inhibitory concentration (FIC) testing with mupirocin. The format is cell-based, Staphylococcus aureus. Particulars: for MIC: Staphylococcus aureus, UAMS1, compound alone, read-out: Cpd MIC, Dosed-Individually; for FIC Index / Antimicrobial interaction with mupirocin (class by FIC index): compound + mupirocin; for Cpd MIC, Dosed-Combination: compound MIC in combination with mupirocin. As to the method: Fractional inhibitory concentration (FIC) testing was performed, as previously described. Briefly, each well of a 96-well microtiter plate was inoculated with 10^4 CFU of S. aureus UAMS-1 [42]. Each row of the plate was supplemented with two-fold increasing concentrations of mupirocin (0 µg mL^−1 to 2 µg mL^−1) whereas each column contained two-fold increasing concentrations of putative RnpA inhibitor compound (0.03, 0.0625, 0.125, 0.25, 0.5, 1, or 2× MIC). […] The FIC index was defined by the following formula: FIC = (MIC of Drug A in Combination/MIC of Drug A Alone) + (MIC of Drug B in Combination/MIC of Drug B Alone). A synergistic interaction was defined as a FIC value of ≤0.5, an additive interaction as 0.5–1, no interaction as 1–4 and antagonistic interaction as FIC ≥ 4, as described.

As usually defined, the IC50 is the concentration that gives 50% inhibition. One may read the MIC as the lowest concentration that inhibits growth of the organism. As for `O=C(Nc1cccc(Cl)c1)c1c(NC(=O)C(F)(F)F)sc2c1CCCCC2` [RNP0007], in test [1], the “Inhibition of in vitro RnpA-mediated RNA degradation (in words)” value is listed as “least effective; also recorded: weakly inhibited”, the “RNA degradation inhibition in time course study” value (from here on “RNA degradation inhibition”) is recorded as “varying degrees of RNA degradation inhibition” and the IC50 was 175 µM. In test [2], the “Inhibition of in vitro RnpA ptRNA processing (in words)” value is “weakly inhibited” and the IC50 was 98 µM. Moreover, in test [3], the MIC is 0.391 µM; the “FIC Index” value came out at 0.75; the “Cpd MIC, Dosed-Combination” value is given as 0.098 µM.
In the case of `O=C(Nc1cccc(C(F)(F)F)c1)c1c(NC(=O)C(F)(F)F)sc2c1CCCCC2` [RNP0011], in test [1], the “Inhibition of in vitro RnpA-mediated RNA degradation (in words)” value is “good inhibitory properties” and the IC50 came to 59 µM. Further, in test [2], the “Inhibition of in vitro RnpA ptRNA processing (in words)” value is given as “good inhibitory properties” and the IC50 stood at 57 µM. Besides, in test [3], the minimum inhibitory concentration (MIC) came to 0.391 µM; the “FIC Index” value is 0.75; the “Cpd MIC, Dosed-Combination” value is reported as 0.098 µM.
As for `O=C(Nc1cccc(F)c1)c1c(NC(=O)C(F)(F)F)sc2c1CCCCC2` [RNP0008], in test [1], the “Inhibition of in vitro RnpA-mediated RNA degradation (in words)” value was “least effective”, the “RNA degradation inhibition” value is reported as “varying degrees of RNA degradation inhibition” and the IC50 stood at 245 µM. Also, in test [2], the “Inhibition of in vitro RnpA ptRNA processing (in words)” value is “only inhibited the ptRNA processing function” and the IC50 is 78 µM. For the same compound, in test [3], the minimal inhibitory concentration (MIC) turned out to be 0.391 µM; the “FIC Index” value is listed as 1; the “Cpd MIC, Dosed-Combination” value is given as 0.196 µM.
Consider `O=C(Nc1ccc(C(F)(F)F)cc1)c1c(NC(=O)C(F)(F)F)sc2c1CCCCC2` [RNP0012], for which, in test [1], the “Inhibition of in vitro RnpA-mediated RNA degradation (in words)” value is “good inhibitory properties”, the “RNA degradation inhibition” value is reported as “varying degrees of RNA degradation inhibition” and the IC50 was 68 µM. Besides, in test [2], the “Inhibition of in vitro RnpA ptRNA processing (in words)” value is “good inhibitory properties” and the IC50 is 66 µM. Further, the “Conversion of precursor tRNA to mature tRNA” value in test [2] (0, 50, 250 or 500 µM, urea-PAGE, Figure 2B) is reported as “reduced conversion of precursor tRNA to mature tRNA in a dose dependent manner”. Also, in test [3], the minimal inhibitory concentration (MIC) was 0.19 µM; the “Antimicrobial interaction with mupirocin (class by FIC index)” value is “additive (a value of 0.5 < FIC ≤ 1 indicates additive effect)”; the “FIC Index” value came out at 0.75; the “Cpd MIC, Dosed-Combination” value is listed as 0.048 µM.
For `O=C(Nc1ccc(F)cc1)c1c(NC(=O)C(F)(F)F)sc2c1CCCC2` [RNP0014], in test [1], the “Inhibition of in vitro RnpA-mediated RNA degradation (in words)” value is reported as “strongest inhibitor”, the “RNA degradation inhibition” value is on record as “varying degrees of RNA degradation inhibition” and the IC50 was found to be 6.4 µM. Further, in test [2], the “Inhibition of in vitro RnpA ptRNA processing (in words)” value is on record as “weak effects; also recorded: weak or no inhibitory activity” and the 50% inhibitory concentration (IC50) came to 138 µM. Moreover, in test [3], the minimal inhibitory concentration (MIC) came to 6.25 µM; the “Antimicrobial interaction with mupirocin (class by FIC index)” value is “synergistic (FIC ≤ 0.5 indicates synergistic activity)”; the “FIC Index” value came to 0.5; the “Cpd MIC, Dosed-Combination” value was 1.56 µM.
`O=C(Nc1ccc(F)cc1)c1c(NC(=O)C(F)(F)F)sc2c1CCCCC2` [RNP0009]: in test [1], the “Inhibition of in vitro RnpA-mediated RNA degradation (in words)” value is “least effective” and the half-maximal inhibitory concentration (IC50) was more than 250 µM. Moreover, in test [2], the “Inhibition of in vitro RnpA ptRNA processing (in words)” value is “only inhibited the ptRNA processing function” and the IC50 worked out at 79 µM. In test [3], the minimum inhibitory concentration (MIC) was 0.78 µM; the “FIC Index” value came out at 0.75; the “Cpd MIC, Dosed-Combination” value is 0.196 µM.
Regarding `O=C(Nc1ccc(C(F)(F)F)cc1)c1c(NC(=O)C(F)(F)F)sc2c1CCCC2` [RNP0015], in test [1], the “Inhibition of in vitro RnpA-mediated RNA degradation (in words)” value is listed as “good inhibitory properties” and the IC50 came out at 43 µM. For the same compound, in test [2], the “Inhibition of in vitro RnpA ptRNA processing (in words)” value is recorded as “greatest inhibitory activity; also recorded: good inhibitory properties” and the concentration for half-maximal inhibition (IC50) is 46 µM. Besides, in test [3], the MIC was 0.78 µM; the “FIC Index” value is 1.5; the “Cpd MIC, Dosed-Combination” value stood at 0.78 µM.
On to `O=C(Nc1cccc(F)c1)c1c(NC(=O)C(F)(F)F)sc2c1CCCC2` [RNP0013], for which, in test [1], the “Inhibition of in vitro RnpA-mediated RNA degradation (in words)” value is “good inhibitory properties” and the 50% inhibitory concentration (IC50) was 50 µM. For the same compound, in test [2], the IC50 is 95 µM. Besides, in test [3], the MIC amounted to 6.25 µM; the “FIC Index” value stood at 0.75; the “Cpd MIC, Dosed-Combination” value is on record as 1.56 µM.
For the compound `O=C(Nc1cccc(C(F)(F)F)c1)c1c(NC(=O)C(F)(F)F)sc2c1CCCC2` [RNP0016], in test [1], the “Inhibition of in vitro RnpA-mediated RNA degradation (in words)” value is “good inhibitory properties” and the IC50 turned out to be 45 µM. Moreover, in test [2], the “Inhibition of in vitro RnpA ptRNA processing (in words)” value is “good inhibitory properties” and the half-maximal inhibitory concentration (IC50) stood at 52 µM. Also, in test [3], the minimal inhibitory concentration (MIC) is 3.12 µM; the “Antimicrobial interaction with mupirocin (class by FIC index)” value was “additive (a value of 0.5 < FIC ≤ 1 indicates additive effect)”; the “FIC Index” value is reported as 1; the “Cpd MIC, Dosed-Combination” value is 1.56 µM.
Consider `Cc1cccc(NC(=O)c2c(NC(=O)C(F)(F)F)sc3c2CCCCC3)c1` [RNP0010], for which, in test [1], the “Inhibition of in vitro RnpA-mediated RNA degradation (in words)” value is “least effective” and the IC50 was 224 µM. In addition, in test [2], the “Inhibition of in vitro RnpA ptRNA processing (in words)” value was “only inhibited the ptRNA processing function” and the IC50 was determined as 70 µM. Further, in test [3], the minimum inhibitory concentration (MIC) amounted to 3.12 µM; the “FIC Index” value was determined as 0.75; the “Cpd MIC, Dosed-Combination” value was found to be 0.78 µM.
